What was measured:
[1] = tested on: pancreatic cells (Linm5F); experiment: Protective effect when tBHP was treated on pancreatic cells (SRB method); type: cell-based; conditions: tBHP 400 uM, 5 h
Procedure: (§1) In order to determine the protective effect on pancreatic cells, Linm5F cells, a sort of the beta cells, were distributed into the 96-well plate in the amount of 2×10^4 cells/well, and incubated for 24 h. The Example compounds were serially diluted by 3-fold to the final concentration of 30, 10, 3, 1, 0.3, 0.1 uM, by which each well was treated for 1 h. Cells were treated with tBHP at the final concentration of 400 uM, and further incubated for 5 h. Protective effects were determined using SRB (Sulforhodamine B Protein) method in which total amount of cellular protein is stained. Briefly, cells were incubated for 5 h, 50 uL of 4% formaldehyde solution was added to each well to fix the cells, and stored for about 30 min at room temperature. After discarding the media, each well was washed with distilled water 2-3 times, and the plate was dried in an oven at 50° C. 50 uL of SRB solution was added to each well, and placed for about 30 min at room temperature. After removing SRB solution, the plate was washed with 1% acetic acid solution 2-3 times. After drying the plate in an oven at 50° C., 100 uL of 10 mM Tris was added to elute SRB which was staining the intracellular protein.

[2] = tested on: primary hepatocytes isolated from rats; experiment: Hepatocyte protective effect against substances deriving hepatocyte toxicity (WST-1 viability); type: cell-based; conditions: Rattus norvegicus, Hepatocyte, doxorubicin, 24-48 h, read-out: EC50, cell protective effects against doxorubicin in hepatocytes
In short: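 Hepatocytes from two-step collagenase perfusion (≥90% viable) seeded on collagen, pretreated 30 min with compound (5-step 2- or 3-fold dilutions from 30, 10 or 1 uM; 0.2% DMSO), then exposed to hepatotoxic agents. WST-1 absorbance at 440 nm after 24-48 h; EC50 = concentration giving 50% of maximal protection.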

brain cells (SK-N-MC) = experiment: Protective effect when tBHP was treated on brain cells (LDH assay); type: cell-based; conditions: Homo sapiens, tBHP 400 uM, 6 h
Procedure: In order to assess the protective effect on brain cells, 2×10^4 brain cells were distributed into the 96-well plate using DMEM media (Gibco, 10% FBS), and incubated for 24 h. The Example compounds were serially diluted by 3-fold to the final concentration of 30, 10, 3, 1, 0.3, 0.1 uM, by which each well was treated for 1 h. Cells were treated with tBHP at the final concentration of 400 uM, and incubated for 6 h. 50 uL of media was taken from each well to proceed with LDH assay (Promega). In LDH assay, 50 uL of media was mixed with 50 uL of assay solution. After the reaction for 30 min at room temperature, absorbance was measured at 490 nm using SpectraMax (Molecular Device).

chondrocytes = experiment: Protective effect when tBHP was treated on chondrocytes (SRB method); type: cell-based, SD rats; conditions: Chondrocyte; tBHP 500 uM, 3 h; rat chondrocytes
Procedure: as §1, with “After drying the plate in an oven at 50° C., 100 uL of 10 mM Tris was added to elute SRB which was staining the intracellular protein.” left out
In order to determine the protective effect on chondrocytes, chondrocytes were isolated from 2 hind legs of 16 week-old SD rats (body weight: 450-460 g). […] Protective effect of each compound was determined using the same SRB staining method as in Linm5F of above mentioned 2).

kidney cells (LLC-PK1) = experiment: Protective effect when tBHP was treated on kidney cells (SRB method); type: cell-based; conditions: Sus scrofa, tBHP 400 uM, 6 h
Procedure: as §1, with “After drying the plate in an oven at 50° C., 100 uL of 10 mM Tris was added to elute SRB which was staining the intracellular protein.” left out
In order to determine the protective effect on kidney cells, 4×10^4 cells were distributed into each well, and incubated for 24 h. […] Protective effect of each compound was determined using the same SRB method as in Linm5F of above mentioned 2).

[3] = tested on: cardiac cells (H9C2, white rat cardiomyocyte); experiment: Protective effect when tBHP was treated on cardiac cells (SRB method); type: cell-based; conditions: tBHP 400 uM, 2 h
Procedure: as §1
In order to assess the protective effect on cardiac cells, H9C2 cells were distributed in the amount of 1.5×10^4 cells/well, and incubated for 24 h. The Example compounds were serially diluted by 3-fold to the final concentration of 30, 10, 3, 1, 0.3, 0.1 uM, by which each well was treated for 45 min. Cells were treated with tBHP at the final concentration of 400 uM, and incubated for 2 h. Protective effect of each compound was determined using the same SRB method as in Linm5F of above mentioned 2).

Row | EC50 (brain cells (SK-N-MC)) [µM] | SMILES | EC50 [1] [µM] | EC50 [2] [µM] | EC50 (chondrocytes) [µM] | EC50 (kidney cells (LLC-PK1)) [µM] | EC50 [3] [µM]
1 | – | COC(=O)CNc1cc(F)cc2cc(-c3ccccc3)[nH]c12 [Example 106, 2-(5-Fluoro-2-phenyl-1H-indol-7-yl)amino-acetic acid methyl ester] | ≤ 0.1 | 0.45 | – | – | –
2 | 0.26 | Cc1ccc(Nc2cc(Cl)cc3c(-c4ccccc4)c[nH]c23)nc1 [Example 115, (5-Chloro-3-phenyl-1H-indol-7-yl)-(5-methyl-pyridin-2-yl)-amine] | – | > 2 | – | – | –
3 | – | O=S1(=O)CCN(Cc2cc(NCC3CCOCC3)c3[nH]c(-c4ccccc4)cc3c2)CC1 [Example 56, (Tetrahydropyran-4-ylmethyl)-[2-phenyl-5-(1,1-dioxo-thiomorpholin-4-yl)methyl-1H-indol-7-yl]amine] | ≤ 0.1 | 0.13 | ≤ 0.1 | 0.66 | –
4 | – | O=C(O)CNc1cc(F)cc2cc(-c3ccccc3)[nH]c12 [Example 107, 2-(5-Fluoro-2-phenyl-1H-indol-7-yl)amino-acetic acid] | ≤ 0.1 | 0.35 | – | – | –
5 | ≤ 0.1 | Cc1cc(N(C)C2CCOCC2)c2[nH]c(-c3ccccc3)cc2c1 [Example 55, (Tetrahydropyran-4-yl)-(5-methyl-2-phenyl-1H-indol-7-yl)-methyl-amine] | – | 0.3 | – | – | –
6 | ≤ 0.1 | O=C1CN(Cc2cc(NC3CCOCC3)c3[nH]c(-c4ccccc4)cc3c2)CCN1 [Example 37, (Tetrahydropyran-4-yl)-[2-phenyl-5-(2-oxo-piperazin-4-yl)methyl-1H-indol-7-yl]amine] | – | 0.15 | – | – | –
7 | – | CS(=O)(=O)N1CCC(Nc2cc(CN3CCS(=O)(=O)CC3)cc3cc(-c4ccccc4)[nH]c23)CC1 [Example 97, (5-(1,1-Dioxo-thiomorpholin-4-yl)methyl-2-phenyl-1H-indol-7-yl)-(1-methanesulfonyl-piperidin-4-yl)-amine] | – | 0.09 | – | – | ≤ 0.2
8 | ≤ 0.1 | O=C1CN(Cc2cc(NCC3CCOCC3)c3[nH]c(-c4ccccc4)cc3c2)CCN1 [Example 63, (Tetrahydropyran-4-ylmethyl)-[2-phenyl-5-(2-oxo-piperazin-4-yl)methyl-1H-indol-7-yl]amine] | – | 0.17 | ≤ 0.1 | – | –

From patent US9000028B2, “Indole and indazole compounds as an inhibitor of cellular necrosis” (LG Life Sciences Ltd., priority 2007, dated 2015)
